Columns and labels:
[1] = test system: human alpha1-acid glycoprotein (AGP); test: Fluorescent labeling of AGP fucosylated by FucT V, SDS/PAGE visualized by UV light; format: biochemical; details: AGP fucosylated with FucT V and GDP-fucose analog 8, 9 or 10, then labeled with 1a or 1b
Text: (§1) Briefly, fucose analogs 4 and 5 are converted to the corresponding 1-bromides, which then are substituted directly by a phosphate group. […] Therefore, TiBr4 is used instead, as described by Srivastava. The fucose-1-phosphates are converted to the corresponding GDP-fucose analogs by using 1H-tetrazole as a catalyst. The tolerability of GDP-fucose analogs 8 and 9 for human alpha-1,3-fucosyltranseferases (FucTs) II-VII is confirmed by using a standard microtiter plate assay. They are then used to elaborate the glycoconjugate substrate, human alpha1-acid glycoprotein (AGP), an acute-phase protein. As fucosylation of AGP is associated with inflammatory diseases, the degree of fucosylation of AGP could be a potential diagnostic or prognostic marker. AGP was fucosylated by using FucT V in the presence of GDP-fucose analogs 8 or 9. After gel filtration, the fucosylated AGP is labeled by using the corresponding naphthalimide 1a or 1b for 4 h at room temperature. Labeled protein is analyzed by SDS/PAGE and visualized by UV light (365 nm). […] Treated protein was separated by SDS/PAGE and visualized by UV light (Top) and Coomassie blue staining (CBB) (Middle). (Bottom) Modified GDP-fucose.
Human alpha1-acid glycoprotein (0.33 mg/mL), pretreated with alpha-fucosidase, was incubated with human alpha-1,3-fucosyltransferase V (100 mU/mL) in MOPS buffer (50 mM, pH 7.2) containing 150 mM NaCl, 10 mM MnCl2, 4 mM ATP, 0.2 mM GDP-fucose analog (8-10). After incubation at 37° C. for 8 h, additional GDP-fucose derivative (final 0.4 mM) was added and the reaction mixture was incubated at 37° C. for 12 h. […]
The fucosylated glycoconjugate was dissolved in HEPES buffer (50 mM, pH 7.6), and added to a solution containing CuSO4 (0.2 mM), 1.0 mM sodium ascorbate, the tris(triazolyl)amine ligand (20) (0.2 mM, stock in DMSO), and the appropriate naphthalimide ligation probe 1a or 1b (0.1 mM, stock in DMSO, final concentration of DMSO; 10%)). After 1 h at room temperature, the mixture was passed through NAP-5 column in water and lyophilized, and analyzed by SDS-PAGE.

[2] = Fluorescence spectra and quantum yields of probes and click products; format: physicochemical; details: before click reaction
Method: Reactivity and click-activated fluorogenic properties of compounds 1a and 1b were tested by performing a Cu(I)-catalyzed azide-alkyne [3+2] cycloaddition (CuAAC) with model fucose analogs 2a and 2b, respectively, as shown in FIG. 3. […] As expected, the ligation reactions produced in a significant increase in fluorescence intensity. The emission maximum of 3a was 462 nm with a quantum yield of 0.36 when excited at 357 nm. […] Unfortunately, the reaction rate between alkyne probe 1a and azidofucose 2a was very slow. Although the reaction of azido probe 1b was completed in <30 min. only 10% of 1a was converted to 3a after 24 h by using the same conditions (monitored by LC-MS). […]
All chemicals were purchased as reagent grade and used without further purification. Reactions were monitored with analytical thin-layer chromatography (TLC) on silica gel 60 F254 plates and visualized under UV (254 nm) and/or by staining with 5% sulfuric acid or acidic ceric ammonium molybdate. ^1H— or ^13C-NMR spectra were measured on a Bruker DRX-500 or DRX-600 using CDCl3 or DMSO-d6 as the solvent (1H, 500 or 600 MHz; ^13C, 125 or 150 MHz). Chemical shifts (in ppm) were determined relative to either tetramethylsilane (0 ppm) or deuterated chloroform (77 ppm). […] Fluorescent excitation and emission were recorded using a HITACHI F-2000 fluorescence spectrophotometer. […]

[3] = Decomposition of probe 1b by LC-MS; format: physicochemical
Method: Bicyclic aromatic azides are known to easily decompose by thermolysis or photolysis through a highly reactive nitrene intermediate (FIG. 12).
Thus we analyzed the decomposition of 1b using LC-MS (FIG. 13). […] The compounds were monitored at 350 nm by using an Agilent SB C8 50×4.6 mm column. (a) 1b. (b) Cycloaddition reaction with 7. (c) After 12 h incubation without 7. (d) The synthesized 4-amino derivative 1c (1). See typical experimental procedure of cycloaddition for the reaction conditions.
In the presence of 6-alkyne fucose 2b, probe 1b was completely converted into the product 3b. However, without 6-alkyne fucose […], probe 1b decomposed into a fluorescent compound with a molecular weight corresponding to the 4-amino derivative 1c ([M+H]^+ 241; ca. 80% conversion after 12 h incubation at room temperature).

[4] = test system: human alpha-1,3-fucosyltranseferases (FucTs) II-VII; test: Standard microtiter plate assay of tolerability of GDP-fucose analogs for fucosyltransferases; format: biochemical
Text: as §1

[5] = Stoichiometric study of L-histidine in the cycloaddition of 1a and 2a; details: relative to copper ion; L-histidine 0-3.0 mM, CuSO4 1.0 mM
Method: The overall volume in each vial was 250 microliters containing a solution of 1,8-naphthalimide 1a (0.5 mM), azidofucose 2a (1.0 mM), CUSO4 (1.0 mM), L-histidine (0-3.0 mM) and sodium ascorbate (5.0 mM) in DMSO/water (56% DMSO). The reactions were allowed to stand at room temperature for 24 hours. The catalytic activity was determined by the same method described above (FIG. 10).
In this condition, 60% of 1a was converted to the product 10 after 1 h at room temperature and the reaction was completed in less than 6 h. To confirm the effects of L-His on the reaction, we measured the time-course of the reaction by fluorescence spectrometer. Conditions: 1,8-naphthalimide 1a (0.1 mM), azidofucose 2a (1.0 mM), CuSO4 (2.0 mM), L-histidine (0 or 4.0 mM) and sodium ascorbate (100 mM) in 50 mM HEPES buffer (containing 6% DMSO). After mixing all reagents, the fluorescence intensity was measured in 5 min intervals at 37° C. by a fluorescence spectrophotometer (FIG. 11). […] Fluorescence intensities were monitored at λ ex 357 nm and λem 462 nm.

[6] = Rapid screening of L-amino acids as cycloaddition ligand catalysts using fluorogenic probe 1a; details: L-amino acid 1.0 mM, CuSO4 1.0 mM, 1a + 2a, 24 h room temperature
Method: A fluorescence quenching technique was used to identify catalysts for the copper-catalyzed cycloaddition. […] In such a screen, the reaction between 1a and 2a is performed in microtiter plates in the presence of individual amino acids. […] (Upper) The microtiter plate was visualized under long wavelength UV lamp (365 nm). (Lower) The fluorescent intensities of each well are measured by a fluorescence plate reader.
The effect of the ligand effect on the reaction rate was visualized by holding the 96-well microtiter plate under a long wavelength UV lamp (365 nm) and analyzed with a standard fluorescence multiplate reader.
The overall volume in each vial was 250 microliters containing a solution of 1,8-naphthalimide 1a (0.5 mM), azidofucose 2a (1.0 mM), CuSO4 (1.0 mM), L-amino acid (1.0 mM) and sodium ascorbate (5.0 mM) in DMSO/water (56% DMSO). The reactions were allowed to stand at room temperature for 24 hours. The reaction mixture was diluted 60 times with 50 mM HEPES buffer (pH 7.2) and then transferred to 96-well microtiter plate, and fluorescence intensity (excitation, 365 nm; emission, […]) was determined with a Fusion plate reader (Perkin Elmer/Packard).

For `CCN1C(=O)c2cccc3c(N=[N+]=[N-])ccc(c23)C1=O` [Compound 1b, 4-Azido-N-ethyl-1,8-naphthalimide], the “fluorescent band of labeled AGP on SDS/PAGE under UV light (365 nm)” value [1] was “clear fluorescent bands”, the “fluorescence of parent probe” value [2] was “no fluorescence” and the “decomposition to 4-amino derivative 1c, conversion” value ([3]; after 12 h incubation at room temperature, without 6-alkyne fucose) was “ca. 80%”. For the same compound, the “stability of probe during labeling” value ([3]; during AGP labeling reaction) was “slowly decomposed into a strongly fluorescent 4-amino derivative”.

In the case of `C#C[C@@H]1O[C@H](OP(=O)(O)OP(=O)(O)OC[C@H]2O[C@@H](n3cnc4c(=O)[nH]c(N)nc43)[C@H](O)[C@@H]2O)[C@@H](O)[C@H](O)[C@@H]1O.CCN(CC)CC` [Compound 8, Guanosine 5′-diphospho-6,7-deoxy-beta-L-galacto-hept-6-ynopyranoside triethylammonium salt], the “tolerability as substrate for FucTs” value [4] is reported as “confirmed”.

With `N[C@@H](Cc1c[nH]cn1)C(=O)O` [Histidine, histidine] the “amount of ligand giving maximum effect on the catalysis” value [5] was 2.0 mol equivalent and the “enhancement of reaction rate compared to ligand-free conditions” value [6] was “about 6 times”.

Reference: patent US8329413B2, “Glycoproteomic probes for fluorescent imaging of fucosylated glycans in vivo” (Academia Sinica, priority 2007, dated 2012)
